The values below come from patent US20140024716A1, “Composition Comprising S-Allyl-L-Cysteine as Active Ingredient for Preventing or Treating Gastrointestinal Disorders” (PHARMAKING CO., LTD., priority 2009, published 2014).

Entries after “also recorded” stand apart in the source; their conditions may differ.

For test [1], the system named is gastric lesions of rats induced by hydrochloric acid-ethanol. Put plainly: Hydrochloric acid-ethanol-induced gastric lesion animal model. It is filed as in vivo, Sprague-Dawley rats. Particulars: for lengths of gastric lesions: 1 h before HCl-ethanol; for lengths of gastric lesions / gastric lesion inhibiting rate (%): p<0.01. From the text:
SAC was purchased from TCI Chemical Co. (Tokyo, Japan). Sterile water for injection (Model No. 73H5F21, Dae Han Pharmaceutical Co. Ltd.) was used as a vehicle, and Stillen® was used as a positive control material. 0.5% CMC-Na and sterile water for injection were used as excipients for Stillen®. Hydrochloric acid was purchased from Samjung Chemical, Co., ethanol was purchased from Baker, Co., aspirin was purchased from Sigma, Co., and indomethacin was purchased from Sigma, Co.
7 to 8-week old male specific pathogen free (SPF) HsdKoat:Sprague-Dawley®™ SD®™rats (weight of 7-week old males was in the range of 208.44 to 227.39 g, and weight of 8-week old maleswas in the range of 223.85 to 245.03 g, purchased from Koatech, Co. Ltd., Gyunggido, Korea) were quarantined and acclimated in the Animal Lab for 7 days. The rats were bred at a temperature of 23 3° C., at a relative humidity of 55 15%, with light for 12 hours (light turned on at 08:00 and light turned off at 20:00) while air was ventilated 10 to 20 times/hr in the Animal Experiment Lab of Gyeonggi Bio-Center. Other environments for breeding which might influence the test for the entire test period were not considered for use. The rats were given free access to a solid laboratory diet (Harlan Co. Ltd., USA. Teklad certified global 18% protein rodent diet, 2918C) that was supplied by Folas International. […] The rats were given free access to tap water that was sterilized using a UV sterilizer and a micro filter with water bottles.
The rats were classified into a vehicle control group G1 to which only a vehicle was administered, a experimental group G2 to which 100 mg/kg of SAC was administered, a experimental group G3 to which 200 mg/kg of SAC was administered, a experimental group G4 to which 400 mg/kg of SAC was administered, and a positive control group G5 to which 100 mg/kg of Stillen® (55.6 mg/kg as an active ingredient) as a positive control material were administered. Each group included 8 rats in a hydrochloric acid-ethanol-induced animal model (Experiment Example 7) and included 6 rats in an aspirin-induced animal model (Experimental Example 8) and in an indomethacin-induced animal model (Experimental Example 9).
The test substance was directly administered to the stomach using an injection tube equipped with a sonde for oral administration in a single dose once per day.
The test substances were administered. After one hour, 1.5 ml of 150 mM HCl in 60% ethanol was orally administered to each rat. The rats to which ethanol and SAC were administered were fasted without water in stainless steel breeding cages for 1 hour. After one hour from the hydrochloric acid-ethanol administration, the rats were sacrificed under anesthesia using ether and their stomachs including parts of the duodenum and esophagus were isolated. The insides of the stomachs were immediately washed with 13 ml of a 2% neutral buffered formalin, and the duodenum and esophagus parts were fixed with forceps. Then, 13 ml of the 2% neutral buffered formalin was added thereto and maintained for 5 minutes for fixation. The greater curvature of each stomach was incised, fixed to a dissection table, and unfolded to measure the lengths of gastric lesions using vernier calipers. Photographs of the unfolded stomachs were taken (FIG. 12) and the stomachs were fixed with a 10% neutral buffered formalin. […]

The test system of test [2] is H. pylori ATCC 43504. As to the kind of experiment: Serum anti-H. pylori IgG (ELISA) in Helicobacter pylori-infected mice. The class given is in vivo, C57BL/6 mice. The protocol: (§1) S-allyl-L-Cysteine (SAC) was purchased from TCI Chemical Co. (Tokyo, Japan). Helicobacter pylori was American Type Culture Collection (ATCC) 43504 (cagA+, vacA s1-ml type) and cultured in a Mueller Hinton-Agar broth at 37° C. for 48 hours, under 5% CO2 microaerophilic conditions with a concentration of 1×10^9 CFU/ml.
(§2) 8-week old male C57BL/6 mice were classified into 4 groups, i.e., a positive control group (to which Helicobacter pylori was administered; PC), a negative control group (to which saline was administered; NC), experimental group 1 (to which Helicobacter pylori and 200 mg/kg of SAC were administered; SAC1), and experimental group 2 (to which Helicobacter pylori and 400 mg/kg of SAC were administered; SAC2). Each group had 10 mice. White powdered SAC was diluted in tap water to concentrations of 20 mg/mL and 40 mg/mL and 10 μl/g (body weight) of the diluted SAC was orally administered to the mice of the SAC1 and SAC2 groups three times a week for 10 weeks. The mice were given free access to tap water for the entire test period. […]
(§3) Enzyme-linked immunosorbent assay (ELISA) was used in order to identify the effect of SAC on serum anti-Helicobacter pylori antibody-formation capability. […] 100 μl of 0.2 M sulfuric acid was added thereto to terminate the reaction and absorbance was measured at 450 nm.

Test [3] relates to Helicobacter pylori-producing toxin VacA. As to the kind of experiment: Serum anti-s1 m1 VacA IgG (ELISA) in Helicobacter pylori-infected mice. The class given is in vivo, C57BL/6 mice. Particulars: SAC1 and SAC2 groups (200 and 400 mg/kg SAC). The method, then:
as §1, §2, §3

For `C=CCSC[C@H](N)C(=O)O` [SAC, S-allyl-L-cysteine], the “lengths of gastric lesions” value in test [1] (200 mg/kg SAC oral, vehicle 209.60±28.39 mm) turned out to be 106.65±16.70 mm; in test [1] (400 mg/kg SAC oral), 72.25±19.33 mm. Also, the “gastric lesion inhibiting rate (%)” value in test [1] (200 mg/kg SAC) is recorded as 41.12±7.97%; in test [1] (400 mg/kg SAC), 65.53±9.22%. In addition, the “gastric lesion inhibiting rate (%) up to” value in test [1] (highest rate over SAC doses) is listed as “about 66%”. For the same molecule, in test [2] (400 mg/kg versus 200 mg/kg SAC), the “antibody titer of anti-H. pylori IgG in serum, SAC2 versus SAC1 group” value is on record as “significantly less than that in the SAC1 group”. For the same molecule, the “antibody titer of anti-H. pylori IgG in serum versus PC group” value in test [2] (SAC1 and SAC2 groups (200 and 400 mg/kg SAC oral, 10 weeks)) is given as “significantly less; also recorded: less than that in the PC group”. Besides, the “production of antibody against VacA (anti-s1 m1 VacA IgG)” value in test [3] was “inhibited in the same manner as in the anti-H. pylori IgG”.
